Assay results published in US20260109721A1, “IONIZABLE CATIONIC LIPIDS INCORPORATING SILICON: SYNTHESIS AND LNP FORMULATION” (priority 2023, published 2026).
Read-outs that look alike come from different tables or passages of the source.

Experiments:
[1] = LNP size, PDI and zeta potential by Dynamic Light Scattering (Method A); format: physicochemical; settings: LNP formulated with the lipid, DLS
Procedure, shortened: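 Dynamic light scattering gave size, polydispersity and zeta potential of Method A nanoparticles. These were made from Luc mRNA in 10 mM citrate pH 4.0 combined with ethanol lipid master mix plus ionizable lipid on a dean-type chip (3:1, TFR around 12 ml/min).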

[2] = Encapsulation efficiency of loaded LNPs, RiboGreen RNA assay (Method A); format: physicochemical
Procedure, shortened: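 Encapsulation determined by RiboGreen fluorescence (excitation 480, emission 525) comparing Triton X-100–lysed and intact LNP wells, duplicates, after 10 min at 37° C and cooling to room temperature. Sample stocks ~4-7 μg/mL RNA in TE buffer; concentration from RNA standard curve.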

[3] = encapsulation efficiency of mRNA-loaded LNP, Method A, RiboGreen

SMILES	PDI [1]	Size (nm) [1] [nm]	Zeta potential (mV) [1] [mV]	EE (%) [2, 3] [%]	EE (%) [2] [%]
CCCCCCCC/C=C\CCCCCCCC(OCCCCCCCCCCCCCCC(C)C)O[Si](C)(C)OCCCCCCN(CCO)CCO (stereo not drawn) [Example 76, (Z)-13-(heptadec-8-en-1-yl)-3-(2-hydroxyethyl)-11,11,29-trimethyl-10,12,14-trioxa-3-aza-11-silatriacontan-1-ol]	0.2	108.4	−19.39	80	
CCCCC/C=C\C/C=C\CCCCCCCCOC(CCCCCCC/C=C\C/C=C\CCCCC)O[Si](C)(C)OCCCCCCN(C)[C@H](CO)Cc1ccccc1 (stereo partly drawn) [Example 77, (2S,23Z,26Z)-2-benzyl-13-((8Z,11Z)-heptadeca-8,11-dien-1-yl)-3,11,11-trimethyl-10,12,14-trioxa-3-aza-11-siladotriaconta-23,26-dien-1-ol]	0.05	90.59	−10.95	85	
CCCCCCCC/C=C\CCCCCCCCOC(CCCCCCC/C=C\CCCCCCCC)O[Si](C)(C)OCCCCCCN(C)[C@H](CO)Cc1ccccc1 (stereo partly drawn) [Example 78, (2S,Z)-2-benzyl-13-((Z)-heptadec-8-en-1-yl)-3,11,11-trimethyl-10,12,14-trioxa-3-aza-11-siladotriacont-23-en-1-ol]	0.10	92.14	−19.77	87	
CCCCC/C=C\C/C=C\CCCCCCCCOC(CCCCCCC/C=C\C/C=C\CCCCC)O[Si](C)(C)OCCCCCCN(C)C (stereo not drawn) [Example 79, (20Z,23Z)-10-((8Z,11Z)-heptadeca-8,11-dien-1-yl)-N,N,8,8-tetramethyl-7,9,11-trioxa-8-silanonacosa-20,23-dien-1-amine]	0.09	102.1	−2425		83
CCCCC/C=C\C/C=C\CCCCCCCCO[Si](C)(C)OC(CCCCCCC/C=C\C/C=C\CCCCC)OCCCN(C)C (stereo not drawn) [Example 80, (17Z,20Z)-5-((8Z,11Z)-heptadeca-8,11-dien-1-yl)-N,N,7,7-tetramethyl-4,6,8-trioxa-7-silahexacosa-17,20-dien-1-amine]	0.11	90.19	−26.51		83
CCCCC/C=C\C/C=C\CCCCCCCCO[Si](C)(C)OC(CCCCCCC/C=C\CCCCCCCC)OCCCN(C)C (stereo not drawn) [Example 81, (17Z,20Z)-5-((Z)-heptadec-8-en-1-yl)-N,N,7,7-tetramethyl-4,6,8-trioxa-7-silahexacosa-17,20-dien-1-amine]	0.10	104	−25.24		86
CCCCC/C=C\C/C=C\CCCCCCCCOC(CCCCCCC/C=C\C/C=C\CCCCC)O[Si](C)(C)O[Si](C)(C)CCCCCCN(CCO)CCO (stereo not drawn) [Example 82, (24Z,27Z)-14-((8Z,11Z)-heptadeca-8,11-dien-1-yl)-3-(2-hydroxyethyl)-10,10,12,12-tetramethyl-11,13,15-trioxa-3-aza-10,12-disilatritriaconta-24,27-dien-1-ol]	0.26	97.5	−16.31	80	
CCCCCCCC/C=C\CCCCCCCCOC(=O)C(C)(C)CC(OCCCCCCCC/C=C\CCCCCCCC)O[Si](C)(C)OCCCCCCN(CCO)CCO (stereo not drawn) [Example 84, (Z)-octadec-9-en-1-yl 1-hydroxy-3-(2-hydroxyethyl)-11,11,15,15-tetramethyl-13-(((Z)-octadec-9-en-1-yl)oxy)-10,12-dioxa-3-aza-11-silahexadecan-16-oate]	0.15	71.7	−16.66	90	
CCCCCCCC/C=C\CCCCCCCCOC(=O)C(C)(C)CC(OCCCCCCCC/C=C\CCCCCCCC)O[Si](C)(C)OCCCCCCN1CCOCC1 (stereo not drawn) [Example 85, (Z)-octadec-9-en-1-yl 4-((dimethyl((6-morpholinohexyl)oxy)silyl)oxy)-2,2-dimethyl-4-(((Z)-octadec-9-en-1-yl)oxy)butanoate]	0.1	96.37	−14.54	90	
CCCCCCCC/C=C\CCCCCCCCOC(=O)C(C)(C)CC(OCCCCCCCC/C=C\CCCCCCCC)O[Si](C)(C)OCCCCCCN(CCCCO)CCCCO (stereo not drawn) [Example 86, (Z)-octadec-9-en-1-yl 18-hydroxy-14-(4-hydroxybutyl)-2,2,6,6-tetramethyl-4-(((Z)-octadec-9-en-1-yl)oxy)-5,7-dioxa-14-aza-6-silaoctadecanoate]	0.25	109.7	−13.69	87	
CCCCCCCC/C=C\CCCCCCCCOC(=O)C(C)(C)CC(OCCCCCCCC/C=C\CCCCCCCC)O[Si](C)(C)OCCCCCCN1CCCCC1 (stereo not drawn) [Example 87, (Z)-octadec-9-en-1-yl 4-((dimethyl((6-(piperidin-1-yl)hexyl)oxy)silyl)oxy)-2,2-dimethyl-4-(((Z)-octadec-9-en-1-yl)oxy)butanoate]	0.06	101.8	−12.28	89	
CCCCCCCC/C=C\CCCCCCCCOC(=O)C(C)(C)CC(OCCCCCCCC/C=C\CCCCCCCC)O[Si](C)(C)OCCCCCCN(CCCO)CCCO (stereo not drawn) [Example 88, (Z)-octadec-9-en-1-yl 1-hydroxy-4-(3-hydroxypropyl)-12,12,16,16-tetramethyl-14-(((Z)-octadec-9-en-1-yl)oxy)-11,13-dioxa-4-aza-12-silaheptadecan-17-oate]	0.21	86.51	−7.76	87	
CCCCCCCC/C=C\CCCCCCCCOC(=O)C(C)(C)CC(OCCCCCCCC/C=C\CCCCCCCC)O[Si](C)(C)OCCCCCCN1CCCCC1CO (stereo not drawn) [Example 89, (Z)-octadec-9-en-1-yl 4-((((6-(2-(hydroxymethyl)piperidin-1-yl)hexyl)oxy)dimethylsilyl)oxy)-2,2-dimethyl-4-(((Z)-octadec-9-en-1-yl)oxy)butanoate]	0.12	97.17	−10.93	89	
CCCCCCCC/C=C\CCCCCCCCOC(=O)C(C)(C)CC(OCCCCCCCC/C=C\CCCCCCCC)O[Si](C)(C)OCCCCCCN1CCCC1CO (stereo not drawn) [Example 90, (Z)-octadec-9-en-1-yl 4-((((6-(2-(hydroxymethyl)pyrrolidin-1-yl)hexyl)oxy)dimethylsilyl)oxy)-2,2-dimethyl-4-(((Z)-octadec-9-en-1-yl)oxy)butanoate]	0.14	100.2	−16.19	87	
CCCCCCCC/C=C\CCCCCCCCOC(=O)C(C)(C)CC(OCCCCCCCC/C=C\CCCCCCCC)O[Si](C)(C)OCCCCCCN(C)CCCCO (stereo not drawn) [Example 91, (Z)-octadec-9-en-1-yl 18-hydroxy-2,2,6,6,14-pentamethyl-4-(((Z)-octadec-9-en-1-yl)oxy)-5,7-dioxa-14-aza-6-silaoctadecanoate]	0.17	85.49	−15.27	88	
CCCCCCCC/C=C\CCCCCCCCOC(=O)C(C)(C)CC(OCCCCCCCC/C=C\CCCCCCCC)O[Si](C)(C)OCCCCCCN(C)CC(O)CO (stereo not drawn) [Example 92, (Z)-octadec-9-en-1-yl 1,2-dihydroxy-4,12,12,16,16-pentamethyl-14-(((Z)-octadec-9-en-1-yl)oxy)-11,13-dioxa-4-aza-12-silaheptadecan-17-oate]	0.23	85.81	−12.56	89	
CCCCCCCC/C=C\CCCCCCCCOC(=O)C(C)(C)CC(OCCCCCCCC/C=C\CCCCCCCC)O[Si](C)(C)OCCCCCCN(C)CCO (stereo not drawn) [Example 93, (Z)-octadec-9-en-1-yl 1-hydroxy-3,11,11,15,15-pentamethyl-13-(((Z)-octadec-9-en-1-yl)oxy)-10,12-dioxa-3-aza-11-silahexadecan-16-oate]	0.15	82.7	−14.61	88	
CCCCCCCC/C=C\CCCCCCCCOC(=O)C(C)(C)CCC(OCCCCCCCC/C=C\CCCCCCCC)O[Si](C)(C)OCCCCCCN(CCO)CCO (stereo not drawn) [Example 94, (Z)-octadec-9-en-1-yl 1-hydroxy-3-(2-hydroxyethyl)-11,11,16,16-tetramethyl-13-(((Z)-octadec-9-en-1-yl)oxy)-10,12-dioxa-3-aza-11-silaheptadecan-17-oate]	0.24	93.8	−12.89	86	
